Columns and labels:
Assay in all cases: relative viability (nuclei count vs DMSO), 5 days (fraction); higher = more cells survive
201T = tested on: 201T
Outline: (§1)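 Dosing by pin tool came one day after lung cancer cell lines were seeded in 1536-well plates, using either one drug or a fixed anchor-drug dose plus five library-drug doses (not always all listed) in √10 steps. After 5 days, nuclei were counted on 4× images. Relative viability is treated-well nuclei count divided by vehicle-well nuclei count, and values are medians of duplicate plates.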

COR-L 105 = tested on: COR-L 105
Outline: as §1

EPLC-272H = tested on: EPLC-272H
Outline: as §1

H3255 = tested on: H3255
Outline: as §1

HCC-78 = tested on: HCC-78
Outline: as §1

HCC-827 = tested on: HCC-827
Outline: as §1

LC-2-ad = tested on: LC-2-ad
Outline: as §1

LCLC-97TM1 = tested on: LCLC-97TM1
Outline: as §1

NCI-H1666 = tested on: NCI-H1666
Outline: as §1

NCI-H1915 = tested on: NCI-H1915
Outline: as §1

NCI-H2087 = tested on: NCI-H2087
Outline: as §1

NCI-H2126 = tested on: NCI-H2126
Outline: as §1

NCI-H2347 = tested on: NCI-H2347
Outline: as §1

NCI-H23 = tested on: NCI-H23
Outline: as §1

NCI-H2405 = tested on: NCI-H2405
Outline: as §1

NCI-H520 = tested on: NCI-H520
Outline: as §1

NCI-H647 = tested on: NCI-H647
Outline: as §1

NCI-H650 = tested on: NCI-H650
Outline: as §1

NCI-H661 = tested on: NCI-H661
Outline: as §1

PC-14 = tested on: PC-14
Outline: as §1

RERF-LC-KJ = tested on: RERF-LC-KJ
Outline: as §1

Cc1sc2c(c1C)C(c1ccc(Cl)cc1)=N[C@@H](CC(=O)OC(C)(C)C)c1nnc(C)n1-2 [JQ1] + C[C@]1(O)C[C@@H](c2nc(-c3ccc4ccc(-c5ccccc5)nc4c3)c3c(N)nccn32)C1 [Linsitinib] (partner 1 µM)
relative viability (201T; first compound 0.04 µM): 0.996 | relative viability (201T; first compound 0.1265 µM): 1.08 | relative viability (201T; first compound 0.4 µM): 0.924 | relative viability (201T; first compound 1.265 µM): 0.607 | relative viability (201T; first compound 4 µM): 0.511 | relative viability (COR-L 105; first compound 0.04 µM): 0.868 | relative viability (COR-L 105; first compound 0.1265 µM): 0.579 | relative viability (COR-L 105; first compound 0.4 µM): 0.349 | relative viability (COR-L 105; first compound 1.265 µM): 0.299 | relative viability (COR-L 105; first compound 4 µM): 0.319 | relative viability (EPLC-272H; first compound 0.04 µM): 1.14 | relative viability (EPLC-272H; first compound 0.1265 µM): 1.07 | relative viability (EPLC-272H; first compound 0.4 µM): 1.12 | relative viability (EPLC-272H; first compound 1.265 µM): 0.502 | relative viability (EPLC-272H; first compound 4 µM): 0.418 | relative viability (H3255; first compound 0.04 µM): 0.913 | relative viability (H3255; first compound 0.1265 µM): 0.728 | relative viability (H3255; first compound 0.4 µM): 0.881 | relative viability (H3255; first compound 1.265 µM): 0.402 | relative viability (H3255; first compound 4 µM): 0.328 | relative viability (HCC-78; first compound 0.04 µM): 0.536 | relative viability (HCC-78; first compound 0.1265 µM): 0.438 | relative viability (HCC-78; first compound 0.4 µM): 0.403 | relative viability (HCC-78; first compound 1.265 µM): 0.255 | relative viability (HCC-78; first compound 4 µM): 0.249 | relative viability (HCC-827; first compound 0.04 µM): 0.921 | relative viability (HCC-827; first compound 0.4 µM): 1.16 | relative viability (HCC-827; first compound 1.265 µM): 0.958 | relative viability (HCC-827; first compound 4 µM): 0.862 | relative viability (LC-2-ad; first compound 0.04 µM): 0.753 | relative viability (LC-2-ad; first compound 0.1265 µM): 0.773 | relative viability (LC-2-ad; first compound 0.4 µM): 0.463 | relative viability (LC-2-ad; first compound 1.265 µM): 0.253 | relative viability (LC-2-ad; first compound 4 µM): 0.265 | relative viability (LCLC-97TM1; first compound 0.1265 µM): 0.181 | relative viability (LCLC-97TM1; first compound 0.4 µM): 0.212 | relative viability (LCLC-97TM1; first compound 1.265 µM): 0.125 | relative viability (LCLC-97TM1; first compound 4 µM): 0.156 | relative viability (NCI-H1666; first compound 0.04 µM): 0.811 | relative viability (NCI-H1666; first compound 0.1265 µM): 0.844 | relative viability (NCI-H1666; first compound 0.4 µM): 0.842 | relative viability (NCI-H1666; first compound 1.265 µM): 0.475 | relative viability (NCI-H1666; first compound 4 µM): 0.484 | relative viability (NCI-H1915; first compound 0.04 µM): 1.15 | relative viability (NCI-H1915; first compound 0.1265 µM): 0.966 | relative viability (NCI-H1915; first compound 0.4 µM): 1.08 | relative viability (NCI-H1915; first compound 1.265 µM): 0.652 | relative viability (NCI-H1915; first compound 4 µM): 0.383 | relative viability (NCI-H2087; first compound 0.04 µM): 1.02 | relative viability (NCI-H2087; first compound 0.4 µM): 0.69 | relative viability (NCI-H2087; first compound 1.265 µM): 0.456 | relative viability (NCI-H2087; first compound 4 µM): 0.508 | relative viability (NCI-H2126; first compound 0.04 µM): 0.725 | relative viability (NCI-H2126; first compound 0.1265 µM): 1.52 | relative viability (NCI-H2126; first compound 0.4 µM): 0.651 | relative viability (NCI-H2126; first compound 1.265 µM): 0.559 | relative viability (NCI-H2126; first compound 4 µM): 0.432 | relative viability (NCI-H2347; first compound 0.04 µM): 0.934 | relative viability (NCI-H2347; first compound 0.1265 µM): 0.747 | relative viability (NCI-H2347; first compound 0.4 µM): 0.743 | relative viability (NCI-H2347; first compound 1.265 µM): 0.632 | relative viability (NCI-H2347; first compound 4 µM): 0.45 | relative viability (NCI-H23; first compound 0.04 µM): 0.513 | relative viability (NCI-H23; first compound 0.1265 µM): 0.555 | relative viability (NCI-H23; first compound 0.4 µM): 0.385 | relative viability (NCI-H23; first compound 1.265 µM): 0.339 | relative viability (NCI-H23; first compound 4 µM): 0.288 | relative viability (NCI-H2405; first compound 0.04 µM): 0.919 | relative viability (NCI-H2405; first compound 0.4 µM): 0.779 | relative viability (NCI-H2405; first compound 1.265 µM): 0.535 | relative viability (NCI-H2405; first compound 4 µM): 0.537 | relative viability (NCI-H520; first compound 0.04 µM): 0.962 | relative viability (NCI-H520; first compound 0.1265 µM): 1.26 | relative viability (NCI-H520; first compound 0.4 µM): 0.821 | relative viability (NCI-H520; first compound 1.265 µM): 0.435 | relative viability (NCI-H520; first compound 4 µM): 0.287 | relative viability (NCI-H647; first compound 0.04 µM): 1.12 | relative viability (NCI-H647; first compound 0.1265 µM): 0.754 | relative viability (NCI-H647; first compound 0.4 µM): 0.568 | relative viability (NCI-H647; first compound 1.265 µM): 0.151 | relative viability (NCI-H647; first compound 4 µM): 0.16 | relative viability (NCI-H650; first compound 0.04 µM): 0.913 | relative viability (NCI-H650; first compound 0.1265 µM): 0.507 | relative viability (NCI-H650; first compound 0.4 µM): 0.503 | relative viability (NCI-H650; first compound 1.265 µM): 0.291 | relative viability (NCI-H650; first compound 4 µM): 0.26 | relative viability (NCI-H661; first compound 0.04 µM): 0.635 | relative viability (NCI-H661; first compound 0.1265 µM): 0.512 | relative viability (NCI-H661; first compound 0.4 µM): 0.391 | relative viability (NCI-H661; first compound 1.265 µM): 0.305 | relative viability (NCI-H661; first compound 4 µM): 0.352 | relative viability (PC-14; first compound 0.04 µM): 0.936 | relative viability (PC-14; first compound 0.1265 µM): 0.735 | relative viability (PC-14; first compound 0.4 µM): 0.779 | relative viability (PC-14; first compound 1.265 µM): 0.611 | relative viability (PC-14; first compound 4 µM): 0.356 | relative viability (RERF-LC-KJ; first compound 0.04 µM): 0.865 | relative viability (RERF-LC-KJ; first compound 0.1265 µM): 1.07 | relative viability (RERF-LC-KJ; first compound 0.4 µM): 0.91 | relative viability (RERF-LC-KJ; first compound 1.265 µM): 0.782 | relative viability (RERF-LC-KJ; first compound 4 µM): 0.631

Reference: the supplement of paper PMC10307832
